Data reported in patent publication US11339419B2, “Scavenger protein(s) for improved preservation of analyte detection sensor(s) and method(s) of use thereof” (Siemens Healthcare Diagnostics Inc., priority 2017, dated 2022).
Values joined by “and” are separate entries in the source; they are usually repeats but may differ in a detail not shown here. Equal values may be shown once.

System: sarcosine oxidase (Toyobo)
Assay: Toyobo Sarcosine Oxidase Enzyme Absorbance with BSA and MIT
Format: biochemical
Details: for Sarcosine Oxidase Enzyme Absorbance, MEAN of 7-11 / Sarcosine Oxidase Enzyme Absorbance, replicates 7-11 / Sarcosine Oxidase Enzyme Absorbance, MEAN of 1-5 / Sarcosine Oxidase Enzyme Absorbance, solutions 1-5: 37° C.
[1] = Day 0, 5 mg/mL BSA only, no MIT (50 ppm MIT row)
[2] = Day 0, 5 mg/mL BSA only, no MIT (100 ppm MIT row)
[3] = Day 0, 25 mg/mL BSA only, no MIT (50 ppm MIT row)
[4] = Day 0, 25 mg/mL BSA only, no MIT (100 ppm MIT row)
[5] = Day 0, 50 mg/mL BSA only, no MIT (50 ppm MIT row)
[6] = Day 0, 50 mg/mL BSA only, no MIT (100 ppm MIT row)
[7] = Day 0, 50 ppm MIT, 25 mg/mL BSA
[8] = Day 0, 50 ppm MIT, 50 mg/mL BSA
[9] = Day 4, 5 mg/mL BSA only, no MIT (50 ppm MIT row)
[10] = Day 4, 5 mg/mL BSA only, no MIT (100 ppm MIT row)
[11] = Day 4, 25 mg/mL BSA only, no MIT (50 ppm MIT row)
[12] = Day 4, 25 mg/mL BSA only, no MIT (100 ppm MIT row)
[13] = Day 4, 50 mg/mL BSA only, no MIT (50 ppm MIT row)
[14] = Day 4, 50 mg/mL BSA only, no MIT (100 ppm MIT row)
[15] = Day 14, 5 mg/mL BSA only, no MIT (50 ppm MIT row)
[16] = Day 14, 5 mg/mL BSA only, no MIT (100 ppm MIT row)
[17] = Day 14, 25 mg/mL BSA only, no MIT (50 ppm MIT row)

Method: Tables 1-4 depict aqueous solutions comprising varying concentrations of BSA (at concentrations of 0 mg/mL, 5 mg/mL, 25 mg/mL, and 50 mg/mL), varying concentrations of MIT (at concentrations of 50 parts per million and 100 parts per million) or Proclin™ 300 (at concentrations of 0.7% and 1.4%) biocides over a particular time period (measurements were taken at days 0, 4, and 14 after exposure of the enzyme(s) to the aqueous solutions) and the associated enzyme absorbance measurements for sarcosine oxidase (commercially offered for sale by BBI Solutions and Toyobo). Absorbance measurements of the sarcosine oxidase enzyme(s) were taken via spectrophotometer for each aqueous solution (represented as columns 1-5 in Tables 1-4—column 6 is a blank), the absorbance being directly proportional to the enzyme activity being measured-which for Tables 1-4 is sarcosine oxidase enzyme activity. Accordingly, the higher the absorbance measurement, the higher the enzyme activity of sarcosine oxidase. Columns 7-11 represent five replicate readings in which the aqueous solution only contains BSA (i.e., there is no biocide(s) present in the aqueous solution). In addition, the mean values, standard deviations, and coefficients of variation are also presented for the enzyme activity/absorbance of each aqueous solution. All measurements were taken at 37° C.
As depicted below in Table 2, sarcosine oxidase (commercially offered for sale by Toyobo) enzyme activity is measured against various concentrations of MIT (biocide) and BSA (scavenger protein) over a period of 14 days (with absorbance measurements taken at 0, 4, and 14 days) for five different aqueous solutions (represented as columns 1-5-column 6 is a blank).

Sarcosine Oxidase Enzyme Absorbance, MEAN of 7-11 [1]: 1.41
Sarcosine Oxidase Enzyme Absorbance, MEAN of 7-11 [2]: 1.39
Sarcosine Oxidase Enzyme Absorbance, MEAN of 7-11 [3]: 1.40
Sarcosine Oxidase Enzyme Absorbance, MEAN of 7-11 [4]: 1.38
Sarcosine Oxidase Enzyme Absorbance, MEAN of 7-11 [5]: 1.35
Sarcosine Oxidase Enzyme Absorbance, MEAN of 7-11 [6]: 1.38
% Bias (Day 0, 50 ppm MIT vs no MIT, 5 mg/mL BSA): −0.3%
% Bias (Day 0, 50 ppm MIT vs no MIT, 25 mg/mL BSA): −1.0%
% Bias (Day 0, 50 ppm MIT vs no MIT, 50 mg/mL BSA): 2.4%
Sarcosine Oxidase Enzyme Absorbance, MEAN of 1-5 (Day 0, 50 ppm MIT, 5 mg/mL BSA): 1.41
Sarcosine Oxidase Enzyme Absorbance, MEAN of 1-5 [7]: 1.39
Sarcosine Oxidase Enzyme Absorbance, MEAN of 1-5 [8]: 1.39
Sarcosine Oxidase Enzyme Absorbance, solutions 1-5 [8]: 1.439 and 1.435 and 1.441
% Bias (Day 0, 100 ppm MIT vs no MIT, 5 mg/mL BSA): 0.3%
% Bias (Day 0, 100 ppm MIT vs no MIT, 25 mg/mL BSA): −0.7%
% Bias (Day 0, 100 ppm MIT vs no MIT, 50 mg/mL BSA): −1.1%
Sarcosine Oxidase Enzyme Absorbance, MEAN of 1-5 (Day 0, 100 ppm MIT, 5 mg/mL BSA): 1.39
Sarcosine Oxidase Enzyme Absorbance, MEAN of 1-5 (Day 0, 100 ppm MIT, 25 mg/mL BSA): 1.37
Sarcosine Oxidase Enzyme Absorbance, MEAN of 1-5 (Day 0, 100 ppm MIT, 50 mg/mL BSA): 1.37
Sarcosine Oxidase Enzyme Absorbance, MEAN of 7-11 [9]: 0.10
Sarcosine Oxidase Enzyme Absorbance, MEAN of 7-11 [10]: 0.79
Sarcosine Oxidase Enzyme Absorbance, replicates 7-11 [10]: 0.933 and 0.941 and 0.967 and 0.963
Sarcosine Oxidase Enzyme Absorbance, MEAN of 7-11 [11]: 1.22
Sarcosine Oxidase Enzyme Absorbance, MEAN of 7-11 [12]: 1.23
Sarcosine Oxidase Enzyme Absorbance, MEAN of 7-11 [13]: 1.24
Sarcosine Oxidase Enzyme Absorbance, MEAN of 7-11 [14]: 1.24
% Bias (Day 4, 50 ppm MIT vs no MIT, 5 mg/mL BSA): 775.9%
% Bias (Day 4, 50 ppm MIT vs no MIT, 25 mg/mL BSA): 11.9%
% Bias (Day 4, 50 ppm MIT vs no MIT, 50 mg/mL BSA): 12.4%
Sarcosine Oxidase Enzyme Absorbance, MEAN of 1-5 (Day 4, 50 ppm MIT, 5 mg/mL BSA): 0.86
Sarcosine Oxidase Enzyme Absorbance, MEAN of 1-5 (Day 4, 50 ppm MIT, 25 mg/mL BSA): 1.37
Sarcosine Oxidase Enzyme Absorbance, MEAN of 1-5 (Day 4, 50 ppm MIT, 50 mg/mL BSA): 1.40
% Bias (Day 4, 100 ppm MIT vs no MIT, 5 mg/mL BSA): 16.5%
% Bias (Day 4, 100 ppm MIT vs no MIT, 25 mg/mL BSA): 10.4%
% Bias (Day 4, 100 ppm MIT vs no MIT, 50 mg/mL BSA): 11.1%
Sarcosine Oxidase Enzyme Absorbance, MEAN of 1-5 (Day 4, 100 ppm MIT, 5 mg/mL BSA): 0.92
Sarcosine Oxidase Enzyme Absorbance, MEAN of 1-5 (Day 4, 100 ppm MIT, 25 mg/mL BSA): 1.35
Sarcosine Oxidase Enzyme Absorbance, MEAN of 1-5 (Day 4, 100 ppm MIT, 50 mg/mL BSA): 1.37
Sarcosine Oxidase Enzyme Absorbance, MEAN of 7-11 [15]: 0.29
Sarcosine Oxidase Enzyme Absorbance, MEAN of 7-11 [16]: 0.31
Sarcosine Oxidase Enzyme Absorbance, MEAN of 7-11 [17]: 1.36
Substance: bovine serum albumin [BSA]
Sarcosine Oxidase Enzyme Absorbance, replicates 7-11 [1]: 1.444 and 1.45 and 1.459 and 1.485 and 1.463
Sarcosine Oxidase Enzyme Absorbance, replicates 7-11 [2]: 1.459 and 1.421 and 1.427 and 1.439 and 1.436
Sarcosine Oxidase Enzyme Absorbance, replicates 7-11 [3]: 1.448 and 1.453 and 1.45 and 1.442 and 1.444
Sarcosine Oxidase Enzyme Absorbance, replicates 7-11 [4]: 1.447 and 1.422 and 1.418 and 1.443 and 1.413
Sarcosine Oxidase Enzyme Absorbance, replicates 7-11 [5]: 1.387 and 1.402 and 1.388 and 1.408 and 1.406
Sarcosine Oxidase Enzyme Absorbance, replicates 7-11 [6]: 1.437 and 1.434 and 1.424 and 1.423 and 1.416
Sarcosine Oxidase Enzyme Absorbance, solutions 1-5 (Day 0, 50 ppm MIT, 5 mg/mL BSA): 1.445 and 1.446 and 1.443 and 1.456 and 1.457
Sarcosine Oxidase Enzyme Absorbance, solutions 1-5 [7]: 1.432 and 1.423 and 1.425 and 1.431 and 1.427
Sarcosine Oxidase Enzyme Absorbance, replicates 7-11 [9]: 0.251 and 0.247 and 0.255 and 0.261 and 0.267
Sarcosine Oxidase Enzyme Absorbance, replicates 7-11 [11]: 1.388 and 1.399 and 1.382 and 1.357 and 1.362
Sarcosine Oxidase Enzyme Absorbance, replicates 7-11 [12]: 1.366 and 1.381 and 1.402 and 1.382 and 1.388
Sarcosine Oxidase Enzyme Absorbance, replicates 7-11 [13]: 1.386 and 1.428 and 1.403 and 1.415 and 1.372
Sarcosine Oxidase Enzyme Absorbance, replicates 7-11 [14]: 1.384 and 1.407 and 1.4 and 1.389 and 1.388
Sarcosine Oxidase Enzyme Absorbance, replicates 7-11 [15]: 0.329 and 0.33 and 0.348 and 0.327 and 0.333
Sarcosine Oxidase Enzyme Absorbance, replicates 7-11 [16]: 0.342 and 0.353 and 0.351 and 0.382 and 0.368
Sarcosine Oxidase Enzyme Absorbance, replicates 7-11 [17]: 1.406 and 1.41 and 1.429 and 1.404 and 1.403
